Measured values published in patent US11568956B2, “Methods for identifying inhibitors of amyloid protein aggregation” (Treventis Corporation, priority 2008, dated 2023).
Where a name gives a salt, the structure may show the parent alone.

Target: T1, Aβ 1-40 (Homo sapiens, UniProt P05067)
T1 construct: ThT aggregation assays of Aβ 1-40 and alpha synuclein
T1 sequence (P05067 672-711 limits assumed): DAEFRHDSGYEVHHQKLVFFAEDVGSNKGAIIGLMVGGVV
Assay: ThT aggregation assay of Aβ 1-40
Type: biochemical
Details: not given
Experimental: The anti-amyloid activity of these compounds was evaluated by ThT aggregation assays of Aβ 1-40 and alpha synuclein, as set forth below. The column “A-Syn” below is a functional ThT aggregation assay of alpha synuclein.
In the case of `O=C(COc1ccccc1)Nc1ccc2c(c1)C(=O)NC2=O`, the IC50 is reported as greater than 20 µM.
`Cc1ccc(N(C)C(=O)C2CC(O)CN2C(=O)OCC(C)C)cc1C` (stereo not drawn) gave an IC50 greater than 20 µM.
With `COc1ccc2ccccc2c1/C=N/c1ccc(S(N)(=O)=O)cc1` the IC50 was greater than 20 µM.
Compound `COc1ccc(CNCc2ccc(F)cc2)cc1OC` has an IC50 greater than 100 µM.
Work on `COc1ccc(C2(C(=O)Nc3ccc(S(=O)(=O)Nc4ncccn4)cc3)CCCC2)cc1OC` yielded an IC50 greater than 50 µM.
Work on `COc1ccc2cc(C(C)N)ccc2c1` (stereo not drawn) yielded an IC50 greater than 100 µM.
`COc1ccccc1NC(=O)C1CC(O)CN1C(=O)OCc1ccccc1` (stereo not drawn) gave an IC50 greater than 20 µM.
`O=C(CNC(=O)c1ccccc1)N/N=C/c1c[nH]nc1-c1ccccc1` showed an IC50 greater than 20 µM.

Target: Aβ (Homo sapiens, UniProt P05067)
Sequence (P05067 672-711 limits assumed): as above
Assay: not given
Details: read-out: Expt (IC50); cited from earlier work
For `CCCN1C(=CC=CC=Cc2sc3ccccc3[n+]2CCC)Sc2ccccc21` [3,3′-dipropyl thiodicarbocyanine iodine], the IC50 is listed as 0.3 µM.
For `NCCc1ccc(O)c(O)c1` [dopamine chloride], the IC50 is given as 28.6 µM.

Same assay, conditions: unit not in the table, μM; Masuda test set; read-out: Expt (IC50); cited from earlier work
For `O=c1c(O)c(-c2ccc(O)c(O)c2)oc2cc(O)cc(O)c12` [quercetin], the IC50 is given as 5 µM.
In the case of `O=C(c1ccccc1)c1ccc(O)c(O)c1O` [2,3,4-trihydroxybenzophenone], the IC50 is given as 3.1 µM.
For `Oc1cc(O)c2c(c1)O[C@H](c1ccc(O)c(O)c1)[C@H](O)[C@H]2c1c(O)cc(O)c2c1O[C@H](c1ccc(O)c(O)c1)[C@@H](O)C2` [procyanidin B1], the IC50 is given as 14 µM.
For `CO[C@H]1/C=C/O[C@@]2(C)Oc3c(C)c(O)c4c(O)c(c(/C=N/N5CCN(C)CC5)c(O)c4c3C2=O)NC(=O)/C(C)=C\C=C\[C@H](C)[C@H](O)[C@@H](C)[C@@H](O)[C@@H](C)[C@H](OC(C)=O)[C@@H]1C` [rifampicin], the IC50 is listed as 4.9 µM.
In the case of `CN(C)CCCN1c2ccccc2Sc2ccc(Cl)cc21` [chlorpromazine hydrochloride], the IC50 is listed as greater than 40 µM.
For `Oc1cc(O)c2c(c1)O[C@H](c1cc(O)c(O)c(O)c1)[C@H](O)C2` [epigallocatechin], the IC50 is given as 7 µM.
In the case of phthalocyanine tetrasulfonate, the IC50 is given as 3.2 µM.
In the case of `CC(=O)c1ccc2c(c1)N(CCCN(C)C)c1ccccc1S2` [acetopromazine maleate salt], the IC50 is given as greater than 40 µM.
In the case of `C[C@@H]1C(=O)O[C@H]2C[C@@]34[C@H]5C[C@@H](C(C)(C)C)[C@]36[C@@H](OC(=O)[C@@H]6O)O[C@@]4(C(=O)O5)[C@]21O` [ginkgolide A], the IC50 is given as greater than 40 µM.
In the case of `O=C(O[C@@H]1Cc2c(O)cc(O)cc2O[C@@H]1c1cc(O)c(O)c(O)c1)c1cc(O)c(O)c(O)c1` [epigallocatechin gallate], the IC50 is given as 2 µM.
In the case of `Nc1c(/N=N/c2ccc(-c3ccc(/N=N/c4cc(S(=O)(=O)O)c5ccccc5c4N)cc3)cc2)cc(S(=O)(=O)O)c2ccccc12` [Congo red], the IC50 is given as 0.9 µM.
For `COc1cccc2c1C(=O)c1c(O)c3c(c(O)c1C2=O)C[C@@](O)(C(C)=O)C[C@@H]3O[C@H]1C[C@H](N)[C@H](O)[C@H](C)O1` [daunorubicin hydrochloride], the IC50 is given as 1.4 µM.
For `C[C@H](CCC(=O)NCCS(=O)(=O)O)[C@H]1CC[C@H]2[C@@H]3CC[C@@H]4C[C@H](O)CC[C@]4(C)[C@H]3CC[C@]12C` [taurolithocholic acid], the IC50 is given as greater than 40 µM.
In the case of `C[C@@H]1[C@H](O)[C@@H](C)/C=C/C=C/C=C/C=C/C=C/C=C/C=C/[C@H](O[C@@H]2O[C@H](C)[C@@H](O)[C@H](N)[C@@H]2O)C[C@@H]2O[C@](O)(C[C@@H](O)C[C@@H](O)[C@H](O)CC[C@@H](O)C[C@@H](O)CC(=O)O[C@H]1C)C[C@H](O)[C@H]2C(=O)O` [amphotericin B], the IC50 is given as 2.2 µM.
For `C[C@@H]1O[C@@H](OC[C@H]2O[C@@H](Oc3c(-c4ccc(O)c(O)c4)oc4cc(O)cc(O)c4c3=O)[C@H](O)[C@@H](O)[C@@H]2O)[C@H](O)[C@H](O)[C@H]1O` [rutin], the IC50 is listed as 32 µM.
In the case of `O=C(/C=C/c1ccc(O)c(O)c1)O[C@H](Cc1ccc(O)c(O)c1)C(=O)O` [rosmarinic acid], the IC50 is listed as 12 µM.
In the case of `Oc1cc(O)c2c(c1)O[C@H](c1cc(O)c(O)c(O)c1)[C@@H](O)C2` [gallocatechin], the IC50 is given as 7 µM.
In the case of `C[C@H](CCC(=O)NCCS(=O)(=O)O)[C@H]1CC[C@H]2[C@@H]3CC[C@@H]4C[C@H](OS(=O)(=O)O)CC[C@]4(C)[C@H]3CC[C@]12C` [taurolithocholic aicd 3-sulfate], the IC50 is listed as greater than 40 µM.
For `O=c1cc(-c2ccc(O)c(O)c2)oc2cc(O)cc(O)c12` [luteolin], the IC50 is given as 3 µM.
In the case of `CCC(=O)c1ccc2c(c1)N(CCCN(C)C)c1ccccc1S2` [propionylpromazine hydrochloride], the IC50 is given as greater than 40 µM.
In the case of `Cc1ccc2nc(-c3ccc(N)cc3)sc2c1` [2-(4-aminophenyl)-6-methylbenzothiazole], the IC50 is listed as 2 µM.
For `O=C1C[C@@H](c2ccc(O)cc2)Oc2cc(O)cc(O)c21` [naringenin], the IC50 is given as 25 µM.
In the case of `O=c1c(-c2ccc(O)cc2)coc2cc(O)ccc12` [daidzein], the IC50 is given as greater than 40 µM.
In the case of tocopherol, the IC50 is listed as greater than 40 µM.
For `Cc1ccc2nc(-c3ccc(N(C)C)cc3)sc2c1` [2-[4-(dimethylamino)phenyl]-6-methylbenzothiazole], the IC50 is listed as 2 µM.
For `Oc1cc(O)c2c(c1)O[C@H](c1ccc(O)c(O)c1)[C@H](O)[C@H]2c1c(O)cc(O)c2c1O[C@H](c1ccc(O)c(O)c1)[C@H](O)C2` [procyanidin B2], the IC50 is given as greater than 40 µM.
For `C=CCc1ccc(O)c(-c2cc(CC=C)ccc2O)c1` [magnolol], the IC50 is listed as greater than 40 µM.
For `O=C(/C=C/c1ccc(O)c(O)c1)O[C@@H]1C[C@](O)(C(=O)O)C[C@@H](O)[C@H]1O` [chlorogenic acid], the IC50 is given as greater than 40 µM.
In the case of `Cc1cc(O)c2c(=O)c3c(O)cc(O)c4c5c(O)cc(O)c6c(=O)c7c(O)cc(C)c8c1c2c(c34)c(c78)c65` [hypericin], the IC50 is given as 0.9 µM.
In the case of `CCCCC[C@@H](O)[C@H]1C(=O)O[C@H](C)[C@@H](O)/C=C/C=C/C=C/C=C/C=C(\C)[C@@H](O)C[C@H](O)C[C@H](O)C[C@H](O)C[C@H](O)C[C@H](O)C[C@@H]1O` [filipin III], the IC50 is given as 14.6 µM.
For `Oc1cc(O)c2cc(O)c(-c3cc(O)c(O)c(O)c3)[o+]c2c1` [delphinidin], the IC50 is listed as 3 µM.
In the case of `Oc1cc(O)c2c(c1)O[C@H](c1ccc(O)c(O)c1)[C@H](O)C2` [epicatechin], the IC50 is listed as greater than 40 µM.
In the case of ginkgolide C, the IC50 is listed as greater than 40 µM.
For `CCCCC[C@H](O)CC(=O)CCc1ccc(O)c(OC)c1` [gingerol], the IC50 is given as 25 µM.
For `O=C(c1ccc(O)cc1O)c1ccc(O)cc1O` [2,2′,4,4′-tetrahydroxybenzaphenone], the IC50 is listed as greater than 40 µM.
For `CN(C)c1ccc2nc3ccc(=[N+](C)C)cc-3sc2c1` [methylene blue], the IC50 is given as 2.3 µM.
In the case of `CCN(CC)CCCC(C)Nc1c2ccc(Cl)cc2nc2ccc(OC)cc12` (stereo not drawn) [quinacrine], the IC50 is listed as 8.4 µM.
In the case of `CC1C(=O)OC2C(O)C34C5CC(C(C)(C)C)C36C(OC(=O)C6O)OC4(C(=O)O5)C12O` (stereo not drawn) [ginkgolide B], the IC50 is given as 11 µM.
For `O=C1NC(=O)c2cc(Nc3ccccc3)c(Nc3ccccc3)cc21` [4,5-dianilinophthalimide], the IC50 is given as 2.9 µM.
In the case of `CCN(CCO)c1ccc(/N=N/c2sc3cc(OC)ccc3[n+]2C)cc1` [basic blue 41], the IC50 is listed as 1.4 µM.
In the case of `O=c1c(O)c(-c2ccc(O)cc2)oc2cc(O)cc(O)c12` [kaempferol], the IC50 is listed as 8 µM.
In the case of `CN(C)CCCN1c2ccccc2Sc2ccccc21` [promazine hydrochloride], the IC50 is listed as greater than 40 µM.
For `CN(C)c1ccc(N=Nc2ccccc2)cc1` [methyl yellow], the IC50 is given as 1.5 µM.
For `OCCN1CCN(CCCN2c3ccccc3Sc3ccc(Cl)cc32)CC1` [perphenazine], the IC50 is given as greater than 40 µM.
In the case of `C[C@H]1[C@H](C)CC[C@]2(C(=O)O)CC[C@]3(C)C(=CC[C@@H]4[C@@]5(C)C[C@@H](O)[C@H](O)[C@@](C)(CO)[C@@H]5CC[C@]43C)[C@H]12` [asiatic acid], the IC50 is given as greater than 40 µM.
For `O=c1cc(-c2ccc(Oc3c(O)cc4oc(-c5ccc(O)cc5)cc(=O)c4c3O)cc2)oc2cc(O)cc(O)c12` [hinokiflavone], the IC50 is given as 5 µM.
For `O=c1cc2oc3cc(O)c(-c4ccc(O)cc4O)cc3nc-2cc1-c1ccc(O)cc1O` [lacmoid], the IC50 is given as 1.4 µM.
In the case of theaflavone, the IC50 is listed as 2 µM.
In the case of `O=C(O)c1cc(/C=C/c2ccc(/C=C/c3ccc(O)c(C(=O)O)c3)c(F)c2)ccc1O` [FSB], the IC50 is listed as 1.9 µM.
For `O=C(c1ccc(O)cc1O)c1ccc(O)c(O)c1O` [2,3,4,2′,4′-pentahydroxybenzophenone], the IC50 is given as 2.8 µM.
For `O=C(c1cc(O)c(O)c(O)c1)c1ccc(O)c(O)c1O` [exifone], the IC50 is given as 0.7 µM.
For `CN(C)c1ccc2nc3ccc(N)cc3[s+]c2c1` [azure A], the IC50 is listed as 0.4 µM.
In the case of `C[C@H](CCC(=O)NCCS(=O)(=O)O)[C@H]1CC[C@H]2[C@@H]3[C@@H](O)C[C@@H]4C[C@H](O)CC[C@]4(C)[C@H]3CC[C@]12C` [tauroursodeoxycholic acid], the IC50 is listed as greater than 40 µM.
In the case of `O=S(=O)(O)c1ccc2c(N=Nc3ccc(N=Nc4ccccc4)cc3)c(O)c(S(=O)(=O)O)cc2c1` [Ponceau SS], the IC50 is given as 1.2 µM.
In the case of `O=C(O)c1cc(/C=C/c2ccc(/C=C/c3ccc(O)c(C(=O)O)c3)c(Br)c2)ccc1O` [BSB], the IC50 is listed as 6.4 µM.
In the case of `O=c1cc(-c2ccc(O)cc2)oc2cc(O)cc(O)c12` [Apigenin], the IC50 is given as greater than 40 µM.
For `O=C(c1ccc(O)cc1)c1ccc(O)cc1` [4,4′-dihydroxybenzophenone], the IC50 is listed as greater than 40 µM.
In the case of `O=C(c1ccccc1O)c1ccccc1O` [2,2′-dihydroxybenzophenone], the IC50 is given as greater than 40 µM.
For `Oc1cc(O)c2cc(O)c(-c3ccc(O)c(O)c3)[o+]c2c1` [cyanidin], the IC50 is given as 4 µM.
For `Nc1ccc(N=Nc2ccc(-c3ccc(N=Nc4c(S(=O)(=O)O)cc5cc(S(=O)(=O)O)c(N=Nc6ccccc6)c(O)c5c4N)cc3)cc2)c(N)c1` [chlorazol black E], the IC50 is given as 0.3 µM.
For `c1cc2c(cc1[C@H]1OC[C@H]3[C@@H]1CO[C@@H]3c1ccc3c(c1)OCO3)OCO2` [sesamin], the IC50 is given as greater than 40 µM.
In the case of `C[C@H](CCC(=O)NCCS(=O)(=O)O)[C@H]1CC[C@H]2[C@@H]3[C@H](O)C[C@@H]4C[C@H](O)CC[C@]4(C)[C@H]3CC[C@]12C` [laurochenodeoxycholic acid], the IC50 is listed as greater than 40 µM.
For `O=c1c(O)c(-c2ccc(O)c(O)c2)oc2c(O)c(O)cc(O)c12` [gossypetin], the IC50 is listed as 1.3 µM.
For `O=C(O[C@@H]1Cc2c(O)cc(O)cc2O[C@@H]1c1ccc(O)c(O)c1)c1cc(O)c(O)c(O)c1` [epicatechin 3-gallate], the IC50 is listed as 3 µM.
For taurohydroxycholic acid, the IC50 is given as greater than 40 µM.
